We go through 1 cell line from the supplement of paper PMC10307832.

What all share (experiment): relative viability (nuclei count vs DMSO), 5 days (fraction); higher = more cells survive
Compound in the test “NVP-TAE684 + Olaparib”: COc1cc(N2CCC(N3CCN(C)CC3)CC2)ccc1Nc1ncc(Cl)c(Nc2ccccc2S(=O)(=O)C(C)C)n1 [NVP-TAE684] + O=C(c1cc(Cc2n[nH]c(=O)c3ccccc23)ccc1F)N1CCN(C(=O)C2CC2)CC1 [Olaparib] (partner 8 µM)
In outline: (§1)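 Five library-drug doses in √10 steps were combined with a fixed anchor-drug dose, or a single drug was given alone, by pin tool to lung cancer cell lines in 1536-well plates the day after seeding. Nuclei were stained and counted after 5 days. Relative viability is the nuclei count in treated wells over that in vehicle wells, taken as the median of duplicate plates.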

Compound in the test “CUDC-101 + Trametinib”: C#Cc1cccc(Nc2ncnc3cc(OC)c(OCCCCCCC(=O)NO)cc23)c1 [CUDC-101] + CC(=O)Nc1cccc(-n2c(=O)n(C3CC3)c(=O)c3c(Nc4ccc(I)cc4F)n(C)c(=O)c(C)c32)c1 [Trametinib] (partner 0.02 µM)
In outline: as §1

Compound in test [1]: C1=CC=C2C(=C1)N=C(S2)C(C#N)C3=NC(=NC=C3)NCCC4=CN=CC=C4 + O=C(c1cc(Cc2n[nH]c(=O)c3ccccc23)ccc1F)N1CCN(C(=O)C2CC2)CC1 [Olaparib] (partner 8 µM)
In outline: as §1

Compound in test [2]: C1=CC=C2C(=C1)N=C(S2)C(C#N)C3=NC(=NC=C3)NCCC4=CN=CC=C4 + COc1cc2c(Oc3ccc(NC(=O)C4(C(=O)Nc5ccc(F)cc5)CC4)cc3F)ccnc2cc1OCCCN1CCOCC1 [Foretinib] (partner 0.25 µM)
The essentials: as §1

For the cell line UMC-11, the relative viability with NVP-TAE684 + Olaparib (first compound 0.2 µM) was 0.376; in the test with NVP-TAE684 + Olaparib (first compound 0.6325 µM), 0.336; with NVP-TAE684 + Olaparib (first compound 2 µM) it was 0.228; in the test with CUDC-101 + Trametinib (first compound 0.01 µM), 0.727; with CUDC-101 + Trametinib (first compound 0.03162 µM), 0.761; with CUDC-101 + Trametinib (first compound 0.1 µM), 0.578. The relative viability with CUDC-101 + Trametinib (first compound 0.3162 µM) was 0.399; in the test with CUDC-101 + Trametinib (first compound 1 µM), 0.127; in test [1] (first compound 0.01581 µM) it was 0.344; in test [1] (first compound 0.05 µM), 0.349; in test [1] (first compound 0.1581 µM) it was 0.366; in test [1] (first compound 0.5 µM) it was 0.382. Further, the relative viability amounted to 0.908 in test [2] (first compound 0.005 µM); 0.993 in test [2] (first compound 0.01581 µM); 0.999 in test [2] (first compound 0.05 µM); 1.01 in test [2] (first compound 0.1581 µM); 1.05 in test [2] (first compound 0.5 µM).
